In general, inhibition refers to the share of the control response that was lost under treatment.

SMILES strings stand for the structures.

This is an account of results in patent US9254283B2, “Therapeutic agent for migraine” (priority 2008, dated 2016).

The subject of this test is cerebral vascular smooth muscle (basilar arteries). Kind of test: Cerebral vasoconstriction effect: inhibition of adenosine-induced relaxation of isolated basilar artery rings. As to conditions: dog basilar artery rings. As for the experimental part: Dogs were anesthetized by intravenous administration of sodium pentobarbital, exsanguinated by decapitation and subjected to craniotomy. The basilar arteries were removed, and ring specimens of cerebral vascular smooth muscle measuring about 2 mm in width were prepared. Each ring specimen was fixed to an injection needle (cut into a 2-mm piece) with a silk thread. The injection needle was fixed to a holder installed in an Easy Magnus Device (Model: UC-2; Kishimoto Medical Instruments), and the specimen was allowed to stabilize for 60 minutes or more under a resting tension of 0.2 g (1.96 mN) in a 37° C. nutritive solution. […] Separately, in the same manner as in the test compound-administered group, dimethylsulfoxide alone was cumulatively added in place of the test compound (solvent-added group). The contraction of the cerebral vascular smooth muscle was then recorded on a recorder (Yokogawa Electric Corporation) from a transducer (Nihon Kohden Corporation) connected to the holder, to which the specimen was fixed, via a strain pressure amplifier (Nihon Kohden Corporation) (n=6). […] The cerebral vasoconstriction effect was determined as the percentage inhibition (%) of the adenosine-induced cerebral vascular smooth muscle relaxation, and comparison was made between the test compound-added group and the solvent-added group.

As to `Cc1ccc(C(=O)Nc2nc(-c3ccco3)c(C(=O)C3CCOCC3)s2)cn1` [(IIC)], where the note is “Canis lupus familiaris, 10 nmol/L, n=6, solvent-added group 0.6±7.6%, read-out: percentage inhibition of the adenosine-induced cerebral vascular smooth muscle relaxation”, the inhibition at 0.01 µM is 97.4 ± 1.8%.

With `CC(C)(O)CCN1CCN(c2cc3nc(-c4ccco4)nn3c(N)n2)CC1` [Compound (IB)], the “suppressing effect on adenosine-induced cerebral vascular smooth muscle relaxation (in words)” value (versus solvent-added group) is on record as “confirmed”.
